ChEMBL document CHEMBL4732257, “The optimization and characterization of functionalized sulfonamides derived from sulfaphenazole against Mycobacterium tuberculosis with reduced CYP 2C9 inhibition” (Bioorg Med Chem Lett, 2021)
Values after ≈ are worked out from the molar mass of the structure shown.

These compounds were tested on Mycobacterium tuberculosis (assay: Antitubercular activity against isoniazid,streptomycin,rifampicin,ethambutol,para-aminosalicylate,prothionamide,capreomycin-resistant Mycobacterium tuberculosis 14862 assessed as bacterial growth inhibition).
Type: functional

Structure (SMILES) | MIC [µg/mL]
Nc1ccc(S(=O)(=O)Nc2ccnn2-c2ccccc2)cc1 [SULFAPHENAZOLE] | 12.6 (≈ 40 µM)
COc1ccc(-n2nccc2NS(=O)(=O)c2ccc(N)cc2)cc1 | 10.6 (≈ 30.8 µM)
Nc1ccc(S(=O)(=O)Nc2ccnn2-c2ccc(F)cc2)cc1 | 10.9 (≈ 32.7 µM)
Cc1ccc(-n2nccc2NS(=O)(=O)c2ccc(N)cc2)cc1 | 11.9 (≈ 36.3 µM)
NNC(=O)c1ccncc1 [ISONIAZID] | > 10
